Laboratory results reported in ChEMBL document CHEMBL4680378, “Discovery of a Lead Compound for Specific Inhibition of Type I Collagen Production in Fibrosis” (ACS Med Chem Lett, 2021).
Active and inactive are the calls of the source. The rule behind the calls is not given here.

Legend:
Primary lung fibroblast [1] = experiment: Inhibition of type 1 collagen alpha1 polypeptide secretion in human lung fibroblasts at 5 uM incubated for 18 hrs followed by addition of fresh medium and measured after 3 hrs by Western blot analysis; type: functional, tissue-based
Primary lung fibroblast [2] = experiment: Inhibition of type 1 collagen alpha2 polypeptide secretion in human lung fibroblasts at 4 uM incubated for 18 hrs followed by addition of fresh medium and measured after 3 hrs by Western blot analysis; type: functional, tissue-based
[3] = Cytotoxicity against human lung fibroblasts assessed as effect on cell viability; type: tissue-based; settings: primary lung fibroblast
[4] = molecular target: La-related protein 6 (Homo sapiens) (UniProt Q9BRS8); experiment: Inhibition of LARP6 La module (unknown origin) binding with collagen 5' stem loop mRNA assessed as decrease in La module dimer bound band intensity at 1 to 50 uM by gel mobility shift assay; settings: dose 1-50 µM
[5] = molecular target: La-related protein 6 (Homo sapiens) (UniProt Q9BRS8); experiment: Inhibition of LARP6 La domain (unknown origin) binding with collagen 5' stem loop mRNA at > 1 uM by gel mobility shift assay; settings: dose microM >1
[6] = molecular target: La-related protein 6 (Homo sapiens) (UniProt Q9BRS8); experiment: Inhibition of LARP6 La module (unknown origin) binding with collagen 5' stem loop mRNA assessed as decrease in La module monomer bound band intensity at 1 to 50 uM by gel mobility shift assay; settings: dose 1-50 µM
[7] = Inhibition of type 1 collagen alpha2 polypeptide secretion in human lung fibroblasts incubated for 18 hrs followed by addition of fresh medium and measured after 3 hrs by Western blot analysis; type: functional, tissue-based; settings: Primary lung fibroblast
[8] = molecular target: La-related protein 6 (Homo sapiens) (UniProt Q9BRS8); experiment: Inhibition of LARP6 La module (unknown origin) binding with collagen 5' stem loop mRNA at > 2.5 uM by gel mobility shift assay; settings: dose microM >2.5
[9] = molecular target: La-related protein 6 (Homo sapiens) (UniProt Q9BRS8); experiment: Inhibition of LARP6 La domain (unknown origin) binding with collagen 5' stem loop mRNA assessed as decrease in La domain bound band intensity at 1 to 3 uM by gel mobility shift assay; settings: dose 1-3 µM
[10] = Inhibition of type 1 collagen alpha1 polypeptide secretion in human lung fibroblasts incubated for 18 hrs followed by addition of fresh medium and measured after 3 hrs by Western blot analysis; type: functional, tissue-based; settings: Primary lung fibroblast
Primary lung fibroblast [11] = experiment: Inhibition of type 1 collagen secretion in human lung fibroblasts at 5 ug/ml incubated for 18 hrs followed by addition of fresh medium and measured after 3 hrs by Western blot analysis; type: functional, tissue-based; settings: dose 5.0 µg/ml

Sequence of La-related protein 6 (Homo sapiens) (Q9BRS8 whole entry, looked up, the tested form may be a part): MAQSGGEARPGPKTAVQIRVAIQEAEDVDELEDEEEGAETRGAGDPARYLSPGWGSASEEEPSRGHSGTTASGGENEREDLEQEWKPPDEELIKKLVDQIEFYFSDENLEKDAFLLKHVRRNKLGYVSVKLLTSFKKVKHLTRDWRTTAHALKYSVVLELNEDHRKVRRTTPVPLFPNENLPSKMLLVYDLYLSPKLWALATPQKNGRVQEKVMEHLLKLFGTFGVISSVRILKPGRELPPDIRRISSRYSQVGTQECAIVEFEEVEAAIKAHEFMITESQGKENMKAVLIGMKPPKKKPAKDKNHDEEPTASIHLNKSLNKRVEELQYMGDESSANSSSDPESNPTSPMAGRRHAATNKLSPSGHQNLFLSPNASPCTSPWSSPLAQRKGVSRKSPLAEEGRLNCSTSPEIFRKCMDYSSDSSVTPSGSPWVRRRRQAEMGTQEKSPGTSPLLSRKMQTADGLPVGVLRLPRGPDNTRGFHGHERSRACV

Row | inhibition [4] | inhibition [5] | inhibition [6] | inhibition [8] | inhibition [9] | SMILES | inhibition (Primary lung fibroblast [1]) | inhibition (Primary lung fibroblast [2]) | Activity [3] | IC50 [7] [µM] | IC50 [10] [µM] | inhibition (Primary lung fibroblast [11])
1 | Active | Active | Active | Active | Active | CCCCCCCCCCCCCC(=O)N[C@H]1C[C@@H](C(N)=O)N(c2cc(N3CCN(C(=O)c4cc(C)cc(C)c4)CC3)ncn2)C1 | Active | Active | Non-Toxic | 3.1 | 4.4 | –
2 | – | – | – | – | – | CCCCCCCCCCCCCC(=O)N[C@H]1C[C@@H](C(N)=O)N(c2cc(N3CCN(C(=O)CCCc4ccccc4)CC3)ncn2)C1 | – | – | – | – | – | Active
